Experimental findings from patent US12576097B2, “Anti-tumor effective component of Hedyotis diffusa, preparation method therefor and use thereof” (Guangdong New Ear Life Technology Co., Ltd., priority 2020, dated 2026) are described below.

Assay [1] is described as follows: Spleen and thymus weight and blood count of S180 tumor-bearing mice. It counts as in vivo, ICR mice. Particulars: 5 mg/kg. The procedure:
168 ICR class II male mice with a weight of 18-22 g were used. The mice were kept under the conditions of the item 2.2 for adaptive feeding for four days before the experiment. After four days, the mice were weighed and their autonomy was measured. […] Each mouse was inoculated with S180 tumor according to the method in the item 2.3, and the drug was administered by gavage after inoculation.
A appropriate amount of test samples were weighed precisely, and prepared into test sample solutions having the desired concentrations by using a 5 vol % ethanol aqueous solution as a solvent, i.e.: the effective parts of 5 mg/kg, 10 mg/kg and 20 mg/kg correspond to the test sample solutions of the groups of the effective part 5, effective part 10, and effective part 20, respectively; E-6-O-(p-coumaroyl)scandoside methyl ester of 2.5 mg/kg, 5 mg/kg, 10 mg/kg, and 20 mg/kg correspond to the test sample solutions of the groups of methyl ester 2.5, methyl ester 5, methyl ester 10 and methyl ester 20, respectively; kaempferol-3-O-[2-O-(6-O-E-feruloyl)-β-D-glucopyranosyl]-β-D-galactopyranose of 2.5 mg/kg, 5 mg/kg, 10 mg/kg and 20 mg/kg correspond to the test sample solutions of the groups of kaempferol 2.5, kaempferol 5, kaempferol 10 and kaempferol 20, respectively. […] Each mouse was administered by gavage at a dose of 0.2 ml/10 g. During the administration period, the mice were fed at 3 g/mouse and ingested water and food freely. All mice were continuously administered for 9 days, and sacrificed by decapitation on day 10. Blood, tumor, liver, spleen, and thymus of mice were collected. The blood collected was placed in a low temperature environment and sent out for blood check. The weight of the tumor, liver, spleen, and thymus and the size of the tumor were recorded.
(§1) The recorded results were expressed as mean plus or minus standard deviation (X±SD), and the data were analyzed by using statistical software SPSS 11.5 software.

Assay [2] has as its system Solid tumor cell line S180. The assay can be described thus: In-vivo anti-tumor experiment of E-6-O-(p-coumaroyl)scandoside methyl ester and its metabolite p-coumaric acid (S180 tumor). More on the design: species or system ICR mice. Particulars: 10 mg/kg by gavage, 9 days. The procedure:
The experimental instruments were placed in a clean table and sterilized for about 30 min by turning on a UV lamp. The mice that were injected with ascites (about one week) were sacrificed by cervical dislocation, and abdomens of the mice were wiped with an alcohol swab. A 20 ml syringe was selected to suck the ascites (milky white is preferred) from the mice. The sucked ascites were placed in a sterile vial, and the vial was placed in a small box with ice. A certain amount of ascites was sucked onto a counting plate and placed under a microscope for counting, and the number of the cells was 10^7 as a base for tumor inoculation (1:2) and passage (1:5).
The adaptively fed ICR class II male mice were taken, and wiped with an alcohol swab on the armpit areas of the right forelimbs. The axillary cavities of the right forelimbs of the mice were inoculated with diluted mice ascite cell (10^7 cells) suspension at 0.2 ml per mouse. After tumor inoculation, the mice were fed and watered freely. One hour later, the drug was administered by gavage.
30 ICR class II male mice with a weight of 18-22 g were used. The mice were adaptively fed for four days under the conditions of the item 2.2 before the experiment. After four days, the mice were weighed and their autonomy was measured. The ICR mice were randomly divided into three groups, namely: a model group, methyl ester 10, p-coumaric acid 10, 10 mice in each group. Each mouse was inoculated with S180 tumor according to the method of the item 2.3, and the drug was administered by gavage after inoculation.
The appropriate amount of test samples were weighed precisely and prepared into test sample solutions having the desired concentrations by using a 5 vol % ethanol aqueous solution as a solvent, i.e.: E-6-O-(p-coumaroyl)scandoside methyl ester of 10 mg/kg; p-coumaric acid of 10 mg/kg. […] The blank group was given a solvent, the positive drug control group was given the cyclophosphamide solution, and the other groups were given the corresponding drugs and doses. Each mouse was administered by gavage at a dose of 0.2 ml/10 g. The mice were fed at 3 g/mouse and ingested water and food freely during the administration period. All mice were continuously administered for 9 days and sacrificed by decapitation on day 10. Blood, tumor, liver, spleen and thymus of the mice were collected. The blood obtained was placed in a low-temperature environment and sent out for blood check. The weight of the tumor, liver, spleen and thymus and the size of the tumor were recorded.
as §1

“Also recorded” adds a separate entry of the source. Marks after values point to notes of the source that are not given here.

Regarding `COC(=O)C1=COC(O[C@@H]2O[C@H](CO)[C@@H](O)[C@H](O)[C@H]2O)C2C(CO)=CC(OC(=O)/C=C/c3ccc(O)cc3)C12` (stereo partly shown) [Methyl ester, E-6-O-(p-coumaroyl)scandoside methyl ester], the “number of erythrocytes compared among groups” value in assay [1] is given as “highest”. Also, the “relative spleen weight compared with model group” value in assay [1] (FIG. 5) is “increase”. In addition, the “relative thymus weight compared with model group” value in assay [1] (FIG. 6) is “increase”. Besides, the “number of leukocytes compared with model group” value in assay [1] (FIG. 7) is on record as “significant increase; also recorded: highest”. In assay [1] (FIG. 8), the “percentage of lymphocytes compared with model group” value was “increased most significantly”. Further, the “relative tumor weight mean ± SD” value in assay [2] (S180 tumor-bearing ICR mice) was 4.65 ± 3.29* 10^−2. Moreover, the inhibition rate in assay [2] (vs model group) is recorded as 36.59%.
